Data taken from PubChem BioAssay AID248 (DTP/NCI, 2004).
Where “and” joins values, the source holds several entries; their conditions need not be identical. Identical values can stand only once. Toxic doses and inconclusive results are not listed. Cut-off read from the data, not from the text of the source: active = T/C of 150% or more; inactive = T/C below 125%.

System: L1210 leukemia ip in BDF1 mice, survival T/C
Assay: NCI In Vivo Anticancer Drug Screen. Data for tumor model L1210 Leukemia (intraperitoneal) in B6D2F1 (BDF1) mice
Conditions: endpoint: mean survival time, higher = longer survival
Outline: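 In this screen, tumor-bearing mice given compound are compared to those given vehicle, and their survival values are reported as a treated-to-control quotient.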

[1] = dose: 100.0 mg/kg/injection, schedule: Q01DX001 (ip), vehicle: Klucel (hydroxypropylcellulose) (HPC)
[2] = dose: 100.0 mg/kg/injection, schedule: Q01DX009 (ip), vehicle: Klucel (hydroxypropylcellulose) (HPC)
[3] = dose: 100.0 mg/kg/injection, schedule: Q04DX002 (ip), vehicle: Klucel (hydroxypropylcellulose) (HPC)
[4] = dose: 100.0 mg/kg/injection, schedule: Q04DX003 (ip), vehicle: Klucel (hydroxypropylcellulose) (HPC)
[5] = dose: 200.0 mg/kg/injection, schedule: Q01DX001 (ip), vehicle: Klucel (hydroxypropylcellulose) (HPC)
[6] = dose: 200.0 mg/kg/injection, schedule: Q01DX009 (ip), vehicle: Klucel (hydroxypropylcellulose) (HPC)
[7] = dose: 200.0 mg/kg/injection, schedule: Q04DX002 (ip), vehicle: Klucel (hydroxypropylcellulose) (HPC)
[8] = dose: 200.0 mg/kg/injection, schedule: Q04DX003 (ip), vehicle: Klucel (hydroxypropylcellulose) (HPC)
[9] = dose: 400.0 mg/kg/injection, schedule: Q01DX001 (ip), vehicle: Klucel (hydroxypropylcellulose) (HPC)
[10] = dose: 400.0 mg/kg/injection, schedule: Q01DX009 (ip), vehicle: Klucel (hydroxypropylcellulose) (HPC)
[11] = dose: 400.0 mg/kg/injection, schedule: Q04DX002 (ip), vehicle: Klucel (hydroxypropylcellulose) (HPC)
[12] = dose: 400.0 mg/kg/injection, schedule: Q04DX003 (ip), vehicle: Klucel (hydroxypropylcellulose) (HPC)
[13] = dose: 400.0 mg/kg/injection, schedule: Q04DX002 (ip), vehicle: saline with Tween-80
[14] = dose: 50.0 mg/kg/injection, schedule: Q01DX009 (ip), vehicle: saline with Tween-80
[15] = dose: 100.0 mg/kg/injection, schedule: Q01DX009 (ip), vehicle: saline with Tween-80
[16] = dose: 100.0 mg/kg/injection, schedule: Q04DX003 (ip), vehicle: saline with Tween-80
[17] = dose: 200.0 mg/kg/injection, schedule: Q01DX009 (ip), vehicle: saline with Tween-80
[18] = dose: 200.0 mg/kg/injection, schedule: Q04DX003 (ip), vehicle: saline with Tween-80
[19] = dose: 400.0 mg/kg/injection, schedule: Q04DX003 (ip), vehicle: saline with Tween-80
[20] = dose: 75.0 mg/kg/injection, schedule: Q01DX001 (ip), vehicle: saline
[21] = dose: 150.0 mg/kg/injection, schedule: Q01DX001 (ip), vehicle: saline
[22] = dose: 25.6 mg/kg/injection, schedule: Q04DX002 (ip), vehicle: saline with Tween-80
[23] = dose: 64.0 mg/kg/injection, schedule: Q04DX002 (ip), vehicle: saline with Tween-80
[24] = dose: 160.0 mg/kg/injection, schedule: Q04DX002 (ip), vehicle: saline with Tween-80

Measured: T/C

Cc1cc(OC(=O)Nc2cc(Cl)ccc2C)c(C(C)C)cc1Cl
inactive: [1] 90 % of control | [2] 102 % of control and 88 % of control | [3] 96 % of control | [4] 103 % of control | [5] 91 % of control | [6] 97 % of control | [7] 94 % of control | [8] 94 % of control | [9] 88 % of control | [10] 94 % of control and 86 % of control | [11] 91 % of control | [12] 96 % of control

Nn1c(Cc2ccccc2)nnc1Cc1ccccc1
inactive: dose: 100.0 mg/kg/injection, schedule: Q04DX002 (ip), vehicle: saline with Tween-80 104 % of control | dose: 200.0 mg/kg/injection, schedule: Q04DX002 (ip), vehicle: saline with Tween-80 87 % of control | [13] 108 % of control

C[C@]12C[C@H](O)[C@H]3[C@@H](CCC4=CC(=O)CC[C@@]43C)[C@@H]1CC[C@@H]2C(=O)CO
inactive: dose: 25.0 mg/kg/injection, schedule: Q01DX009 (sc), vehicle: steriod suspending solution 101 % of control | dose: 25.0 mg/kg/injection, schedule: Q01DX010 (sc), vehicle: steriod suspending solution 102 % of control | dose: 50.0 mg/kg/injection, schedule: Q01DX009 (sc), vehicle: steriod suspending solution 95 % of control and 103 % of control | dose: 50.0 mg/kg/injection, schedule: Q01DX010 (sc), vehicle: steriod suspending solution 104 % of control | dose: 100.0 mg/kg/injection, schedule: Q01DX009 (sc), vehicle: steriod suspending solution 94 % of control and 107 % of control | dose: 100.0 mg/kg/injection, schedule: Q01DX010 (sc), vehicle: steriod suspending solution 102 % of control | dose: 200.0 mg/kg/injection, schedule: Q01DX009 (sc), vehicle: steriod suspending solution 105 % of control and 113 % of control | dose: 200.0 mg/kg/injection, schedule: Q01DX010 (sc), vehicle: steriod suspending solution 102 % of control

COC(C/C=C\C=C\CC/C=C/CC(C)/C=C/C(=C\C(=O)O)CC(=O)O)/C(C)=C\C=C(/C)C(=O)O (centres undefined)
inactive: dose: 0.5 mg/kg/injection, schedule: Q01DX001 (ip), vehicle: saline 101 % of control | dose: 1.0 mg/kg/injection, schedule: Q01DX001 (ip), vehicle: saline 102 % of control | dose: 2.0 mg/kg/injection, schedule: Q01DX001 (ip), vehicle: saline 102 % of control | dose: 4.0 mg/kg/injection, schedule: Q01DX001 (ip), vehicle: saline 104 % of control | dose: 8.0 mg/kg/injection, schedule: Q01DX001 (ip), vehicle: saline 101 % of control

CCOC(=O)NC(C)(C)Cc1ccccc1
inactive: dose: 25.0 mg/kg/injection, schedule: Q01DX009 (ip), vehicle: saline with Tween-80 91 % of control | dose: 25.0 mg/kg/injection, schedule: Q04DX003 (ip), vehicle: saline with Tween-80 101 % of control | [14] 98 % of control | dose: 50.0 mg/kg/injection, schedule: Q04DX003 (ip), vehicle: saline with Tween-80 106 % of control | [15] 96 % of control | [16] 97 % of control and 103 % of control

CCOP(=O)(OCC)C(CC=C(C)C)C(C)=O (centres undefined)
inactive: [14] 100 % of control | [15] 94 % of control | [17] 88 % of control

Clc1ccc(NP(Br)(c2ccccc2)(c2ccccc2)c2ccccc2)cc1
inactive: dose: 75.0 mg/kg/injection, schedule: Q01DX001 (ip), vehicle: other 107 % of control | dose: 150.0 mg/kg/injection, schedule: Q01DX001 (ip), vehicle: other 104 % of control | dose: 300.0 mg/kg/injection, schedule: Q01DX001 (ip), vehicle: other 101 % of control

COC1OC2COc3ccccc3OC2C2NC12 (centres undefined)
inactive: [3] 98 % of control | [7] 105 % of control | [11] 102 % of control

OC(C(c1ccccc1)c1ccccn1)(C(F)(F)F)C(F)(F)F (centres undefined)
inactive: [15] 106 % of control | [16] 94 % of control | [17] 104 % of control | [18] 100 % of control | dose: 400.0 mg/kg/injection, schedule: Q01DX009 (ip), vehicle: saline with Tween-80 97 % of control | [19] 97 % of control

COc1cc(-c2cc(OC)c(N=N/C(=N/Nc3ccc([N+](=O)[O-])cc3)c3ccc([N+](=O)[O-])cc3)cc2Cl)c(Cl)cc1N=N/C(=N\Nc1ccc([N+](=O)[O-])cc1)c1ccc([N+](=O)[O-])cc1
inactive: dose: 50.0 mg/kg/injection, schedule: Q01DX001 (ip), vehicle: saline 103 % of control | dose: 100.0 mg/kg/injection, schedule: Q01DX001 (ip), vehicle: saline 94 % of control | dose: 200.0 mg/kg/injection, schedule: Q01DX001 (ip), vehicle: saline 103 % of control | dose: 400.0 mg/kg/injection, schedule: Q01DX001 (ip), vehicle: saline 94 % of control

COc1ccc(/C=C/c2cnnc3ccccc23)cc1OC
inactive: [1] 113 % of control | [5] 98 % of control

O=C1CC2C(=O)CC1C(C(=O)O)C2C(=O)O (centres undefined)
inactive: [20] 102 % of control | [1] 103 % of control | [21] 104 % of control | [5] 119 % of control | dose: 300.0 mg/kg/injection, schedule: Q01DX001 (ip), vehicle: saline 105 % of control | [9] 98 % of control

CCCCC(CC)COc1nc(OCC(CC)CCCC)nc(OCC(CC)CCCC)n1 (centres undefined)
inactive: [22] 91 % of control | [23] 91 % of control | [16] 88 % of control | [24] 91 % of control | [18] 92 % of control | [13] 87 % of control | [19] 87 % of control

O=C(Nc1ccc(NC2=NCCN2)cc1)c1ccc(C(=O)Nc2ccc(NC3=NCCN3)cc2)c([N+](=O)[O-])c1
inactive: dose: 1.88 mg/kg/injection, schedule: Q01DX Z (ip), vehicle: saline 92 % of control | dose: 3.75 mg/kg/injection, schedule: Q01DX Z (ip), vehicle: saline 97 % of control | dose: 7.5 mg/kg/injection, schedule: Q01DX Z (ip), vehicle: saline 106 % of control | dose: 7.5 mg/kg/injection, schedule: Q01DX Z (oral), vehicle: saline 94 % of control | dose: 15.0 mg/kg/injection, schedule: Q01DX Z (ip), vehicle: saline 110 % of control and 89 % of control | dose: 15.0 mg/kg/injection, schedule: Q01DX Z (oral), vehicle: saline 95 % of control | dose: 30.0 mg/kg/injection, schedule: Q01DX Z (oral), vehicle: saline 91 % of control | dose: 60.0 mg/kg/injection, schedule: Q01DX Z (oral), vehicle: saline 100 % of control

Brc1ccc(C2CCCCC2)cc1
inactive: [16] 97 % of control | [18] 93 % of control | [19] 101 % of control

CC(=O)OC1CC2(O)C3CCC4CC(O)CCC4(C)C3CCC2(C)C1c1ccc(=O)oc1 (centres undefined)
inactive: dose: 100.0 mg/kg/injection, schedule: Q01DX001 (sc), vehicle: steriod suspending solution 107 % of control | dose: 200.0 mg/kg/injection, schedule: Q01DX001 (sc), vehicle: steriod suspending solution 101 % of control | dose: 400.0 mg/kg/injection, schedule: Q01DX001 (sc), vehicle: steriod suspending solution 107 % of control

c1ccc([Si](c2ccccc2)(c2ccccc2)c2ccc3ccccc3c2)cc1
inactive: [22] 87 % of control | [23] 90 % of control | [16] 90 % of control | [24] 90 % of control | [18] 88 % of control | [13] 90 % of control | [19] 87 % of control

CNC(=S)N(C)N=O
inactive: dose: 100.0 mg/kg/injection, schedule: Q01DX Z (ip), vehicle: methylcellulose (MC) 97 % of control | dose: 200.0 mg/kg/injection, schedule: Q01DX Z (ip), vehicle: methylcellulose (MC) 120 % of control

Cc1ccc(NC(=O)C(c2ccccc2)c2ccccc2)cc1Cl
inactive: [2] 108 % of control | [4] 88 % of control | [6] 95 % of control | [8] 91 % of control | [10] 108 % of control | [12] 101 % of control

Cn1c(=O)c2c(ncn2CN2CCOCC2)n(C)c1=O
inactive: [20] 100 % of control | [21] 100 % of control
